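Each compound was tested at five concentrations against cells in 96-well plates for 48 hours. TGI: concentration producing complete growth inhibition.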
Legend:
Assay in all cases: DTP human tumour cell line panel, 48 h
786-0 renal = system: 786-0 renal
A498 renal = system: A498 renal
A549 NSCLC = system: A549 NSCLC
ACHN renal = system: ACHN renal
CAKI-1 renal = system: CAKI-1 renal
CCRF-CEM leukemia = system: CCRF-CEM leukemia
COLO 205 colon = system: COLO 205 colon
DLD-1 colon = system: DLD-1 colon
DMS 114 small cell lung = system: DMS 114 small cell lung
DMS 273 small cell lung = system: DMS 273 small cell lung
EKVX NSCLC = system: EKVX NSCLC
HCT-116 colon = system: HCT-116 colon
HCT-15 colon = system: HCT-15 colon
HL-60(TB) leukemia = system: HL-60(TB) leukemia
HOP-62 NSCLC = system: HOP-62 NSCLC
HOP-92 NSCLC = system: HOP-92 NSCLC
HT29 colon = system: HT29 colon
IGROV1 ovarian = system: IGROV1 ovarian
K-562 leukemia = system: K-562 leukemia
KM12 colon = system: KM12 colon
LOX IMVI melanoma = system: LOX IMVI melanoma
LXFL 529 NSCLC = system: LXFL 529 NSCLC
M14 melanoma = system: M14 melanoma
M19-MEL melanoma = system: M19-MEL melanoma
MOLT-4 leukemia = system: MOLT-4 leukemia
NCI-H226 lung = system: NCI-H226 lung
NCI-H23 lung = system: NCI-H23 lung
NCI-H460 lung = system: NCI-H460 lung
NCI-H522 lung = system: NCI-H522 lung
OVCAR-3 ovarian = system: OVCAR-3 ovarian
OVCAR-4 ovarian = system: OVCAR-4 ovarian
OVCAR-5 ovarian = system: OVCAR-5 ovarian
OVCAR-8 ovarian = system: OVCAR-8 ovarian
RPMI-8226 leukemia = system: RPMI-8226 leukemia
SF-268 CNS = system: SF-268 CNS
SF-295 CNS = system: SF-295 CNS
SF-539 CNS = system: SF-539 CNS
SK-MEL-2 melanoma = system: SK-MEL-2 melanoma
SK-MEL-28 melanoma = system: SK-MEL-28 melanoma
SK-MEL-5 melanoma = system: SK-MEL-5 melanoma
SK-OV-3 ovarian = system: SK-OV-3 ovarian
SNB-75 CNS = system: SNB-75 CNS
SNB-78 CNS = system: SNB-78 CNS
SW-620 colon = system: SW-620 colon
TK-10 renal = system: TK-10 renal
U251 CNS = system: U251 CNS
UACC-257 melanoma = system: UACC-257 melanoma
UACC-62 melanoma = system: UACC-62 melanoma
UO-31 renal = system: UO-31 renal
HCC-2998 colon = system: HCC-2998 colon
KM20L2 colon = system: KM20L2 colon
MALME-3M melanoma = system: MALME-3M melanoma
RXF 393 renal = system: RXF 393 renal
SNB-19 CNS = system: SNB-19 CNS

Measured: TGI

COc1c(Br)cc(Br)c(OC)c1-c1ccc[nH]1
not listed: HCC-2998 colon | KM20L2 colon | MALME-3M melanoma | RXF 393 renal | SNB-19 CNS
> 100 µM: all other assays above

O=C1NC(=O)C(C(=O)C(=O)Nc2cccc(C(F)(F)F)c2)C(=O)N1
not listed: DMS 273 small cell lung | HOP-92 NSCLC | HT29 colon | NCI-H226 lung | SF-295 CNS
> 100 µM: all other assays above

— PubChem BioAssay (NCI)
